Where two headings read alike, the source gives them in different places.

The test system of data set [1] is Hordeum vulgare (spring barley, HORVS). The format is in vivo. The conditions noted are these: for % visual injury (Obs) / % visual injury Obs: HORVS.
Data set [2] concerns Triticum aestivum (spring wheat, TRZAS). The format is in vivo. The conditions noted are these: for % visual injury (Obs) / % visual injury Obs: TRZAS.
Experimental: (§1) Seeds of the desired test plant species were planted in a 90:10% v/v (volume/volume) mixture of PRO-MIX® BX (Premier Tech Horticulture, Quakertown, PA, USA) and PROFILE® GREENS GRADE™ (Profile Products LLC, Buffalo Grove, IL, USA) planting mixture, which typically has a pH of 5.2 to 6.2 and an organic matter content of at least 50 percent, in plastic pots with a surface area of 103.2 square centimeters (cm^2). […] The plants were grown for 7-36 days (d) in a greenhouse with an approximate 14-hour (h) photo-period which was maintained at about 23° C. during the day and 22° C. during the night. Nutrients and water were added on a regular basis and supplemental lighting was provided with overhead metal halide 1000-Watt lamps as necessary. The plants were employed for testing when they reached the second or third true leaf stage.
(§2) Emulsifiable concentrates of each of each pyridine carboxylate herbicide (Compound A or Compound B) were prepared at 100 grams acid equivalent per liter (g ae/L). The emulsifiable concentrates also included a safener, cloquintocet-mexyl, at 120 grams active ingredient per liter (g ai/L), unless otherwise noted below. An aliquot of each emulsifiable concentrate was placed in a 25 mL glass vial and diluted with an aqueous mixture of 1.25% (v/v) ACTIROB® B esterified rapeseed oil (Bayer Crop Science, Research Triangle Park, NC, USA) or MSO® Concentrate with LECI-TECH® methylated soybean oil (Loveland Products, Loveland, CO, USA) to obtain concentrated stock solutions at the highest application rate for each herbicide, based upon a 12 milliliter (mL) application volume at a rate of 187 liters per hectare (L/ha). The concentrated stock solutions were further diluted with an aqueous mixture of 1.25% v/v ACTIROB® B or MSO® Concentrate with LECI-TECH® to obtain stock solutions at reduced application rates for each herbicide. Spray solutions of the herbicide combinations (Compound A or Compound B plus synthetic auxin herbicide or auxin transport inhibitor) were prepared by adding weighed amounts or aliquots of the synthetic auxin herbicide or auxin transport inhibitor to the stock solutions of Compound A or Compound B to form 12-mL spray solutions in two-way combinations.
(§3) The spray solutions were applied to the plant material with an overhead Mandel track sprayer equipped with 8002E nozzles calibrated to deliver 187 L/ha over an application area of 0.503 square meters (m^2) at a spray height of 18 inches (43 centimeters (cm)) above the average plant canopy. Control plants were sprayed in the same manner with the solvent blank. All pyridine carboxylate herbicide (component a) application rates are given as “g ae/ha” and all synthetic auxin herbicide or auxin transport inhibitor (component b) application rates are given as “g ai/ha.”
(§4) The treated plants and control plants were placed in a greenhouse as described above and watered by sub-irrigation to prevent wash-off of the test compounds. After 20-22 d, the condition of the test plants as compared with that of the control plants was determined visually and scored on a scale of 0 to 100 percent where 0 corresponds to no injury and 100 corresponds to complete kill.
The test system of data set [3] is Brassica napus (spring rape, BRSNN). Description: Greenhouse postemergence trial BRSNN. The format is in vivo. Conditions: for % visual injury (Obs): BRSNN.
For data set [4], the system named is Kochia scoparia (kochia, KCHSC). The experiment in a line: Greenhouse postemergence trial KCHSC. The format is in vivo. Conditions: KCHSC.
Experimental: as §1, §2, §3, §4
Data set [5] relates to Polygonum convolvulus (wild buckwheat, POLCO). The experiment in a line: Greenhouse postemergence trial POLCO. Conditions: POLCO. The format is in vivo.
For data set [6], the system named is Viola tricolor (wild pansy, VIOTR). Description: Greenhouse postemergence trial VIOTR.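 Note: greenhouse plants sprayed at second to third true leaf stage, injury rated visually after 20-22 d against solvent-blank sprayed controls, 0 meaning no injury and 100 complete kill.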
Data set [7] relates to Veronica hederifolia (ivyleaf speedwell, VERHE). The experiment in a line: Greenhouse postemergence trial VERHE. Type of data set: in vivo. The conditions noted are these: VERHE.
In data set [8] the test system is Triticum aestivum (winter wheat, TRZAW). The experiment in a line: Greenhouse postemergence crop phytotoxicity TRZAW. Type of data set: in vivo. The conditions noted are these: TRZAW.
The subject of data set [9] is Cirsium arvense (Canadian thistle, CIRAR). The experiment in a line: Greenhouse postemergence trial CIRAR. Type of data set: in vivo. Conditions: CIRAR.
Experimental: as §1, §2, §3, §4
For data set [10], the system named is Brassica napus (winter rape, BRSNW). Description: Greenhouse postemergence trial BRSNW. The format is in vivo. Conditions: BRSNW.
Data set [11] has as its system Hordeum vulgare (winter barley, HORVW). The experiment in a line: Greenhouse postemergence crop phytotoxicity HORVW. The format is in vivo. Conditions: HORVW.
The subject of data set [12] is Papaver rhoeas (corn poppy), herbicide-resistant (PAPRH-R). The experiment in a line: Greenhouse postemergence trial PAPRH-R. The conditions noted are these: PAPRH-R. Type of data set: in vivo.
Data set [13] has as its system Matricaria chamomilla (wild chamomile, MATCH). Description: Greenhouse postemergence trial MATCH.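 Note: greenhouse plants sprayed at second to third true leaf stage, injury rated by eye 20-22 d later versus solvent-blank controls on 0–100 scale, 0 no injury, 100 complete kill.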 Type of data set: in vivo. Conditions: MATCH.
Experimental: (§5) The plants were grown for 7-36 days (d) in a greenhouse with an approximate 14-hour (h) photo-period which was maintained at about 23° C. during the day and 22° C. during the night. Nutrients and water were added on a regular basis and supplemental lighting was provided with overhead metal halide 1000-Watt lamps as necessary. The plants were employed for testing when they reached the second or third true leaf stage.
(§6) The emulsifiable concentrates also included a safener, cloquintocet-mexyl, at 120 grams active ingredient per liter (g ai/L), unless otherwise noted below.
(§7) Control plants were sprayed in the same manner with the solvent blank. All pyridine carboxylate herbicide (component a) application rates are given as “g ae/ha” and all synthetic auxin herbicide or auxin transport inhibitor (component b) application rates are given as “g ai/ha.”
as §4
Data set [14] concerns Cyanus segetum (cornflower, CENCY). The experiment in a line: Greenhouse postemergence trial CENCY. The format is in vivo. The conditions noted are these: CENCY.
Experimental: as §1, §2, §3, §4
Data set [15] concerns Matricaria inodora (false chamomile, MATIN). Description: Greenhouse postemergence trial MATIN. The format is in vivo. Conditions: MATIN.
Experimental: as §1, §2, §3, §4
Data set [16] relates to Sinapis arvensis (wild mustard, SINAR). The experiment in a line: Greenhouse postemergence trial SINAR. The format is in vivo. The conditions noted are these: SINAR.
Experimental: as §5, §6, §7, §4
For data set [17], the system named is Veronica persica (bird's-eye speedwell, VERPE). The experiment in a line: Greenhouse postemergence trial VERPE. Type of data set: in vivo.
Experimental: as §1, §2, §3, §4
In data set [18] the test system is Lamium purpureum (purple deadnettle, LAMPU). Description: Greenhouse postemergence trial LAMPU.
In data set [19] the test system is Matricaria discoidea (pineapple weed, MATMT). The experiment in a line: Greenhouse postemergence trial MATMT. The format is in vivo. Conditions: MATMT.
Experimental: as §1, §2, §3, §4
Data set [20] relates to Salsola kali (Russian thistle, SASKR). The experiment in a line: Greenhouse postemergence trial SASKR.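 Note: greenhouse plants sprayed at second or third true leaf stage, injury rated by eye after 20-22 d against solvent-blank controls, 0 meaning no injury, 100 complete kill.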 The conditions noted are these: SASKR. Type of data set: in vivo.
Data set [21] has as its system Stellaria media (chickweed, STEME). The experiment in a line: Greenhouse postemergence trial STEME. Type of data set: in vivo. The conditions noted are these: STEME.
Experimental: as §1, §2, §3, §4
The test system of data set [22] is Viola arvensis (field violet, VIOAR). The experiment in a line: Greenhouse postemergence trial VIOAR. The format is in vivo. The conditions noted are these: VIOAR.
Data set [23] relates to Anthemis arvensis (field chamomile, ANTAR). The experiment in a line: Greenhouse postemergence trial ANTAR. The format is in vivo. Conditions: ANTAR.
Data set [24] deals with Papaver rhoeas (corn poppy, PAPRH). Description: Greenhouse postemergence trial PAPRH. The format is in vivo. Conditions: PAPRH.
Experimental: as §1, §2, §3, §4
For data set [25], the system named is Capsella bursa-pastoris (shepherd's purse, CAPBP). Description: Greenhouse postemergence trial CAPBP. The format is in vivo. Conditions: CAPBP.
Experimental: as §1, §2, §3, §4
The test system of data set [26] is Chenopodium album L. (common lambsquarters, CHEAL). Description: Greenhouse postemergence trial CHEAL.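 Note: greenhouse plants sprayed at second to third true leaf stage, injury rated by eye after 20-22 d versus solvent-blank sprayed controls, 0 = no injury, 100 = complete kill.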 Type of data set: in vivo. The conditions noted are these: c1-2 Compound A 7.5/10; c3 Quinclorac 140; c4-5 A 7.5/10 + Quinclorac 140 g/ha.
Data set [27] deals with Amaranthus retroflexus (pigweed, AMARE). Description: Greenhouse postemergence trial AMARE.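 Note: Greenhouse-grown plants sprayed at second to third true leaf stage, injury rated by eye after 20-22 d versus solvent-blank sprayed controls, 0 = no injury, 100 = complete kill.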 Type of data set: in vivo. Conditions: c1-2 Compound A 7.5/10; c3 Quinclorac 140; c4-5 A 7.5/10 + Quinclorac 140 g/ha.
Setting [28] is: c1-2 Compound A 7.5/10, c3 Quinclorac 140, c4-5 A 7.5/10 + Quinclorac 140 g/ha.
Where [29] appears, read: Papaver rhoeas, post-emergence, Quinclorac 560 g/ha, read-out: % visual injury Obs.

As to `O=C(O)COc1ccc(Cl)cc1Cl` [2,4-D Choline, 2,4-D choline, reference compound], the “% visual injury, Obs (crop phytotoxicity)” value in data set [1] (Hordeum vulgare (spring barley, HORVS), in vivo) is listed as 0%; in data set [2] (Triticum aestivum (spring wheat, TRZAS), in vivo), 0%. For the same compound, the “% visual injury, Obs” value in data set [3] (in vivo) was 80%.
For the compound `CNC.O=C(O)COc1ccc(Cl)cc1Cl` [2,4-D DMA], the “% visual injury (Obs)” value turned out to be 0% in data set [1] (alone 280 g/ha); 5% in data set [2] (alone 280 g/ha); 10% in data set [4] (alone 280 g/ha); 55% in data set [5] (alone 280 g/ha); 83% in [3] (alone 280 g/ha); 65% in [6] (VIOTR, alone 280 g/ha).
For `Nc1nc(C2CC2)nc(C(=O)O)c1Cl` [Aminocyclopyrachlor], the “% visual injury Obs” value is listed as 60% in data set [7] (alone, 50 g/ha); 0% in data set [8] (alone, 50 g/ha); 85% in [9] (alone, 50 g/ha); 50% in [10] (alone, 50 g/ha); 0% in data set [11] (alone, 50 g/ha); 0% in data set [1] (alone, 50 g/ha). Moreover, the “% visual injury Obs” value is 60% in [12] (alone, 50 g/ha); 60% in data set [13] (alone, 50 g/ha); 100% in data set [14] (alone, 50 g/ha); 85% in data set [15] (alone, 50 g/ha); 50% in data set [16] (alone, 50 g/ha); 65% in data set [17] (VERPE, alone, 50 g/ha). Also, the “% visual injury Obs” value was determined as 0% in [2] (alone, 50 g/ha); 65% in data set [18] (LAMPU, alone, 50 g/ha); 100% in data set [4] (alone, 50 g/ha); 70% in data set [5] (alone, 50 g/ha); 50% in data set [19] (alone, 50 g/ha); 75% in data set [20] (alone, 50 g/ha). For the same compound, the “% visual injury Obs” value was found to be 30% in data set [21] (alone, 50 g/ha); 25% in data set [22] (alone, 50 g/ha); 100% in data set [23] (alone, 50 g/ha); 75% in data set [24] (alone, 50 g/ha); 30% in [6] (VIOTR, alone, 50 g/ha); 70% in data set [25] (alone, 50 g/ha). Also, the “% visual injury (Obs)” value in data set [1] (alone 25 g/ha) is 20%; in data set [2] (alone 25 g/ha), 43%; in [4] (alone 25 g/ha), 78%; in data set [3] (alone 25 g/ha), 30%; in data set [6] (VIOTR, alone 25 g/ha), 45%.
Take `O=C(O)c1c(Cl)ccc2cc(Cl)cnc12` [Quinclorac, quinclorac, reference compound]: the pest or weed control amounted to 30% in data set [7] (Veronica hederifolia, post-emergence, Quinclorac 560 g/ha, read-out: % visual injury Obs); 30% in data set [9] (Cirsium arvense, post-emergence, Quinclorac 560 g/ha, read-out: % visual injury Obs); 50% in data set [12] (setting [29]); 10% in data set [13] (Matricaria chamomilla, post-emergence, Quinclorac 560 g/ha, read-out: % visual injury Obs); 60% in data set [14] (Centaurea cyanus, post-emergence, Quinclorac 560 g/ha, read-out: % visual injury Obs); 0% in data set [15] (Tripleurospermum inodorum, post-emergence, Quinclorac 560 g/ha, read-out: % visual injury Obs). Also, the pest or weed control is 10% in data set [16] (Mutarda arvensis, post-emergence, Quinclorac 560 g/ha, read-out: % visual injury Obs); 50% in data set [17] (Veronica persica, post-emergence, VERVE, Quinclorac 560 g/ha, read-out: % visual injury Obs); 10% in data set [4] (Bassia scoparia, post-emergence, Quinclorac 560 g/ha, read-out: % visual injury Obs); 10% in data set [5] (Fallopia convolvulus, post-emergence, Quinclorac 560 g/ha, read-out: % visual injury Obs); 0% in [19] (Matricaria discoidea, post-emergence, Quinclorac 560 g/ha, read-out: % visual injury Obs); 10% in data set [20] (Salsola kali, post-emergence, Quinclorac 560 g/ha, read-out: % visual injury Obs). For the same compound, the pest or weed control in data set [21] (Stellaria media, post-emergence, Quinclorac 560 g/ha, read-out: % visual injury Obs) came to 5%; in data set [22] (Viola arvensis, post-emergence, Quinclorac 560 g/ha, read-out: % visual injury Obs) it was 30%; in data set [23] (Anthemis arvensis, post-emergence, Quinclorac 560 g/ha, read-out: % visual injury Obs) it was 0%; in data set [24] (setting [29]), 10%; in data set [25] (Capsella bursa-pastoris, post-emergence, Quinclorac 560 g/ha, read-out: % visual injury Obs), 0%. The “% visual injury Obs” value in data set [8] (Quinclorac 560 g/ha), in data set [11] (Quinclorac 560 g/ha), in [1] (Quinclorac 560 g/ha) and in data set [2] (Quinclorac 560 g/ha) was 0% each time. Further, the plant injury in data set [10] (Brassica napus, post-emergence, Quinclorac 560 g/ha, read-out: % visual injury Obs) was found to be 10%. Further, the “% visual injury (crop phytotoxicity)” value in data set [1] (setting [28]) was determined as 5%; in data set [2] (setting [28]), 0%. Further, the “% visual injury” value in data set [26] and in [27] was 0% each time. Further, the pest or weed control at 560 g/ha stood at 10% in data set [18] (Lamium purpureum, post-emergence, read-out: % visual injury Obs) and 10% in data set [6] (Viola tricolor, post-emergence, read-out: % visual injury Obs).

For the origin of these results see US12568967B2, “Compositions comprising pyridine carboxylate herbicides with synthetic auxin herbicides or auxin transport inhibitors” (priority 2018, dated 2026).
